Test results published in patent publication US20150141439A1, “PHARMACEUTICAL COMPOSITION FOR THE PREVENTION OR TREATMENT OF BRAIN TUMOR OR TEMODAL RESISTANT GLIOBLASTOMA MULTIFORM COMPRISING AZATHIOPRINE AS AN ACTIVE INGREDIENT” (KOREA RESEARCH INSTITUTE OF CHEMICAL TECHNOLOGY, priority 2012, published 2015).

Tests used:
[1] = tested on: PC3 Human prostate adenocarcinoma; experiment: Secondary cytotoxicity test, PC3; assay type: cell-based; conditions: PC-3
Description: (§1) Particularly, the cell growth inhibition effect was measured by WST-1 cell proliferation assay [http://www.roche-applied-science.com/PROD_INF/MANUALS/CELL_MAN/apoptosis—087—088.pdf]. The compound of formula 1 was loaded in a 384-well cell culture plate. Three types of glioblastoma multiform cell lines [proneural subtype (559T), mesenchymal subtype (592T), and classical subtype (626T)], normal human astrocytes (NHA), a lung cancer cell line (A549), and a glioblastoma multiform cell line (U87MG) were distributed in the plate at the density of 4.5×10^3 cells/well, and the medium was filled up to make 50 μl per well. At this time, the concentration of the solvent DMSO for the compound of formula 1 was no more than 0.2%. After culturing the cells for 72 hours, 5 mg/ml of WST-1 reagent was added by 5 μl per well, followed by reaction for 3˜4 hours. Then OD450 was measured to investigate the effect of the compound of formula 1 on cell proliferation.
(§2) To investigate the cell growth inhibition effect of the compound of formula 1 of the present invention (azathioprine) in many different cell lines, secondary cytotoxicity test was performed with the cell lines listed in Table 5 by the same manner as described in Example 1.

[2] = tested on: normal human astrocytes (NHA); conditions: azathioprine 10 μM, 24 hours later, before and after the treatment
[3] = tested on: GBM #6 glioblastoma multiform patient originated cells; experiment: Neurosphere formation inhibition, GBM #6; assay type: cell-based, human; design: key: S: strong effect; I: intermediate effect; R: rare effect; conditions: GBM #6, type B (classical), Azathioprine 1 μM, duration 23 day
Description: (§3) Particularly, to investigate neurosphere formation, glioblastoma multiform cells were cultured for a certain time and the cells were distributed again in culture vessels, followed by additional culture. Then, the number of newly generated neurospheres was measured. First, the glioblastoma multiform patient originated cells were sub-cultured, which were distributed in a 96-well plate (20, 50, and 200 cells in 50 μl of culture medium/well). 2, 6, and 20 μM of the compound of formula 1 (azathioprine) and the compound of Comparative Example 1 (Temodal) were treated thereto by 50 μl per well to make the final concentrations of 1, 3, and 10 μM. Then, the compound of formula 1 (azathioprine) and the compound of Comparative Example 1 (Temodal) were added to 50 μl of cell culture medium with the same concentrations as the above once a week, which were then cultured for 7˜23 days. When neurosphere was formed at least 50 μm in the control group not treated with the compound, the number of neurospheres in each well was counted to compare the neurosphere formation before and after the treatment of the compound of formula 1 (azathioprine) and the compound of Comparative Example 1 (Temodal).
(§4) The glioblastoma multiform cells used in this experiment were classified into 4 types, which are type A, type B, type C, and type D, according to the gene expression pattern. […]

[4] = tested on: GBM #2 glioblastoma multiform patient originated cells; experiment: Neurosphere formation inhibition, GBM #2; assay type: cell-based, human; design: key: S: strong effect; I: intermediate effect; R: rare effect; conditions: GBM #2, type A (proneural), Azathioprine 1 μM, duration 15 day
Description: as §3, with “2, 6, and 20 μM of the compound of formula 1 (azathioprine) and the compound of Comparative Example 1 (Temodal) were treated thereto by 50 μl per well to make the final concentrations of 1, 3, and 10 μM.” left out
(§5) The glioblastoma multiform cells used in this experiment were classified into 4 types, which are type A, type B, type C, and type D, according to the gene expression pattern. Methylation of MGMT (O6-me-G methyltransferase), the DNA repair protein, was confirmed in each cell line. […]

[5] = tested on: GBM #10 glioblastoma multiform patient originated cells; experiment: Neurosphere formation inhibition, GBM #10; assay type: cell-based, human; design: key: S: strong effect; I: intermediate effect; R: rare effect; conditions: GBM #10, type D (non-classified), Azathioprine 1 μM, duration 10 day
Description: as §3, with “2, 6, and 20 μM of the compound of formula 1 (azathioprine) and the compound of Comparative Example 1 (Temodal) were treated thereto by 50 μl per well to make the final concentrations of 1, 3, and 10 μM.” left out
as §5

[6] = tested on: U2932 Human DLBCL (Diffuse large B-cell lymphoma); experiment: Secondary cytotoxicity test, U2932; assay type: cell-based
Description: as §1, §2

[7] = tested on: glioblastoma multiform cells transplanted in the brain of a mouse; experiment: Glioblastoma multiform orthotopic animal model, survival; assay type: in vivo
Description: Following experiment was performed to investigate the radiosensitizing effect and chemosensitizing effect of the compound of formula 1 (azathioprine) in the glioblastoma multiform orthotopic animal model.
Particularly, to investigate the resistance against Temodal or radiotherapy in glioblastoma multiform, glioblastoma multiform cells were cultured. The cultured cells (2×10^5/5 μl) were transplanted in the brain of a mouse. 17 days later, the administration of Temodal (65 mg/kg, oral-administration) or radiotherapy (2 Gy) began, which continued for 5 days. The average survival period was investigated. […] For the comparison, the survival period of the group treated with “Avastin”, the well-known anticancer agent, is also presented.
Glioblastoma multiform, glioblastoma multiform cells were cultured. The cultured cells (2×10^5/5 μl) were transplanted in the brain of a mouse. 17 days later, the administration of Temodal (65 mg/kg, oral-administration) or radiotherapy (2 Gy) began, which continued for 5 days. Unlike the above experiment, the compound of formula 1 of the present invention (azathioprine) was co-treated to the mouse by oral-administration at the dose of 20 mg/kg every day after 11 days from the glioblastoma multiform transplantation in the mouse brain. Then, the average survival period was investigated.

GBM (559T) cells = conditions: GBM (559T) cell lysate, azathioprine 10 μM, 24 hours later, compared with before the treatment
[8] = tested on: NCI-H23 Human lung adenocarcinoma; experiment: Secondary cytotoxicity test, NCI-H23; assay type: cell-based
Description: as §1, §2

[9] = tested on: GBM #1 glioblastoma multiform patient originated cells; experiment: Neurosphere formation inhibition, GBM #1; assay type: cell-based, human; design: key to inhibition of neurosphere formation: S: strong effect; I: intermediate effect; R: rare effect
Description: as §3
The glioblastoma multiform cells used in this experiment were classified into 4 types, which are type A, type B, type C, and type D, according to the gene expression pattern. Methylation of MGMT (O6-me-G methyltransferase), the DNA repair protein, was confirmed in each cell line. At that time, type A [GBM #1, #2, #3] was proneural subtype, type B [GBM #4, #5, #6, #7] was classical subtype, type C [GBM #8] was mesenchymal subtype, and type D [GBM #9, #10] was non-classified glioblastoma multiform.

[10] = tested on: GBM #8 glioblastoma multiform patient originated cells; experiment: Neurosphere formation inhibition, GBM #8; assay type: cell-based, human; design: key: S: strong effect; I: intermediate effect; R: rare effect; conditions: GBM #8, type C (mesenchymal), Azathioprine 1 μM, duration 15 day
Description: as §3, §4

## Cn1cnc([N+](=O)[O-])c1Sc1ncnc2nc[nH]c12 [Azathioprine, 6-(1-methyl-4-nitro-1H-imidazol-5-ylthio)-7H-purine]
[1]
  IC50: 6.7 µM
[2]
  concentrations of azathioprine metabolites (TGMP, MeTIMP, MeTGMP, TIMP) in cell lysate: not much changed
[3]
  inhibition of neurosphere formation: S
[4]
  inhibition of neurosphere formation: S
[5]
  inhibition of neurosphere formation: S
[6]
  IC50: 4.2 µM
[7]; radiotherapy (2 Gy) 5 days from day 17 + azathioprine 20 mg/kg oral every day after day 11, control 28 days
  Average Survival Period: 41 days
[7]; radiotherapy (2 Gy) 5 days from day 17 + azathioprine 20 mg/kg oral every day after day 11, vs. control
  Survival Period Extension Rate (%): 44%
GBM (559T) cells
  concentrations of azathioprine metabolites (TGMP, MeTIMP, MeTGMP, TIMP) in cell lysate: significantly raised
[8]
  IC50: 4.9 µM
[9]; GBM #1, type A (proneural), Azathioprine 1 μM, duration 7 day
  inhibition of neurosphere formation: R
[9]; GBM#1, azathioprine raised to 10 μM
  neurosphere formation: significantly inhibited
[10]
  inhibition of neurosphere formation: S
